ChEMBL document CHEMBL1201862, “PubChem BioAssay data set” (2004)
Active and inactive are the calls of the source.

Key:
[1] = biological target: 5-hydroxytryptamine receptor 1E (Homo sapiens, UniProt P28566); experiment: Counterscreen assay for S1P3 antagonists: Dose response cell-based high throughput screening assay to identify antagonists of the 5-Hydroxytryptamine Receptor Subtype 1E (5HT1E). [Related pubchem assays: 1429, 485 ]; format: functional
[2] = biological target: Sphingosine 1-phosphate receptor 3 (Homo sapiens, UniProt Q99500); experiment: Dose response cell-based high throughput screening assay for antagonists of the Sphingosine 1-Phosphate Receptor 3 (S1P3). [Related pubchem assays: 1429, 485 ]; format: functional
Sequence of Sphingosine 1-phosphate receptor 3 (Q99500 whole entry): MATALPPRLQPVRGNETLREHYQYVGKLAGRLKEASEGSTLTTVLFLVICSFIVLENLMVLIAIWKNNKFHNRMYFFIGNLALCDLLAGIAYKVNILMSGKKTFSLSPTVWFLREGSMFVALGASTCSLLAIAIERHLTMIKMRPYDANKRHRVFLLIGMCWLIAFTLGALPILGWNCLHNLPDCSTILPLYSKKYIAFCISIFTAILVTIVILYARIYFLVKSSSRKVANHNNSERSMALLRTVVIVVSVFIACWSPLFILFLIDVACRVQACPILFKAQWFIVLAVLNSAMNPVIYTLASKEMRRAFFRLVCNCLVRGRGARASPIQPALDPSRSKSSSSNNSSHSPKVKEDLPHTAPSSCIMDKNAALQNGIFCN

[3] = biological target: Potassium voltage-gated channel subfamily KQT member 2 (Rattus norvegicus, UniProt O88943, W236L); experiment: potentiation of rat KCNQ2 current – cell-based, automated electrophysiology, mechanism study for KCNQ2 potentiator project, dose response (AID 2603); format: functional
Sequence of Potassium voltage-gated channel subfamily KQT member 2 (O88943 whole entry W236L): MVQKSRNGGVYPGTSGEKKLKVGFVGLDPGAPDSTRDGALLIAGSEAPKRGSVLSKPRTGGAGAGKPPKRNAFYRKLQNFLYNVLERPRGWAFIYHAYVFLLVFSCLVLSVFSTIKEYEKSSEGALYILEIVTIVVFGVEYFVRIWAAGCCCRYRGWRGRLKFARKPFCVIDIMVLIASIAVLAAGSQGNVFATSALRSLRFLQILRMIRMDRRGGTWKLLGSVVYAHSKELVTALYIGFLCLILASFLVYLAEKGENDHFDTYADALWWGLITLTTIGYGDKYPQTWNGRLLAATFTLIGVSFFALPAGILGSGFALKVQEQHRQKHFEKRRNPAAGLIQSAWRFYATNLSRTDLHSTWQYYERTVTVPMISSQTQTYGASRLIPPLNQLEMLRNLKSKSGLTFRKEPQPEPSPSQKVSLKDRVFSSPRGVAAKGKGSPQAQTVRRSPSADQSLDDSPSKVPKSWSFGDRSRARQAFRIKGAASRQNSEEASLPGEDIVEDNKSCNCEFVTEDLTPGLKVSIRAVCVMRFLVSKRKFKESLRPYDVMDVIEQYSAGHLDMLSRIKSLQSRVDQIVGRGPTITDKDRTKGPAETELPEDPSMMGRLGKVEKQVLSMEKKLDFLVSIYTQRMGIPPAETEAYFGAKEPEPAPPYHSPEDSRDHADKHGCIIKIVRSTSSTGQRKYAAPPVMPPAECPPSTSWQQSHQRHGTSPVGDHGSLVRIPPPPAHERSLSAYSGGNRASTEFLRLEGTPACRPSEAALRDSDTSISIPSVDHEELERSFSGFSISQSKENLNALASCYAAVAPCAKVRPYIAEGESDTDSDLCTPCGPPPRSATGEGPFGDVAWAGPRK

[4] = biological target: T1, Replicative DNA helicase DnaB (Mycobacterium tuberculosis, UniProt P9WMR3); experiment: DnaB intein splicing inhibitors, dose response, biochemical, cell-free fluorescence (AID 449749); format: functional
T1 sequence (P9WMR3 whole entry): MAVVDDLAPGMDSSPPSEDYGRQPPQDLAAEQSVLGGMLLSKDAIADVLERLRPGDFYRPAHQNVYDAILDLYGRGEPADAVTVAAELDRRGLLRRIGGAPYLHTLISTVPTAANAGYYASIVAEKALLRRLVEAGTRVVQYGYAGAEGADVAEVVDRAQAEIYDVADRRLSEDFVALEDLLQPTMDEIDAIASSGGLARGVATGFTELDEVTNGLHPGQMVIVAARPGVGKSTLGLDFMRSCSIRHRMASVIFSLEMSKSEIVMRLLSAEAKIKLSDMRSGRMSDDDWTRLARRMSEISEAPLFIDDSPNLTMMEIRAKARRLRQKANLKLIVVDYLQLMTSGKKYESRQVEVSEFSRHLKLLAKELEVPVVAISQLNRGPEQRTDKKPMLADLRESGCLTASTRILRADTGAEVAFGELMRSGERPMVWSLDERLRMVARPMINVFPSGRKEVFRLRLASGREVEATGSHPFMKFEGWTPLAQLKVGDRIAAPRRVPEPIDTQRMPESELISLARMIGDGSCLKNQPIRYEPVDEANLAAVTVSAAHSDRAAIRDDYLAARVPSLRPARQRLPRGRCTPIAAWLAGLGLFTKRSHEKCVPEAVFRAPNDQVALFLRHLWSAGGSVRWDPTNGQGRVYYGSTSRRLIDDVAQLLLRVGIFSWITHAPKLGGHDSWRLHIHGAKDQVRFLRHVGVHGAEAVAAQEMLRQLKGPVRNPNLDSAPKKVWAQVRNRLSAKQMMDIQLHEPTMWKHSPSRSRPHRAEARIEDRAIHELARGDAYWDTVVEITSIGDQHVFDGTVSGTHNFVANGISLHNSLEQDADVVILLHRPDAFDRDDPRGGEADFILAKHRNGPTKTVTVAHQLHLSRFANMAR

[5] = biological target: T2, High affinity choline transporter 1 (Homo sapiens, UniProt Q9GZV3); experiment: human choline transporter blockers, potency – cell-based, 5-point CRC, membrane potential dye, dose response (AID 504840); format: functional
T2 sequence (Q9GZV3 whole entry): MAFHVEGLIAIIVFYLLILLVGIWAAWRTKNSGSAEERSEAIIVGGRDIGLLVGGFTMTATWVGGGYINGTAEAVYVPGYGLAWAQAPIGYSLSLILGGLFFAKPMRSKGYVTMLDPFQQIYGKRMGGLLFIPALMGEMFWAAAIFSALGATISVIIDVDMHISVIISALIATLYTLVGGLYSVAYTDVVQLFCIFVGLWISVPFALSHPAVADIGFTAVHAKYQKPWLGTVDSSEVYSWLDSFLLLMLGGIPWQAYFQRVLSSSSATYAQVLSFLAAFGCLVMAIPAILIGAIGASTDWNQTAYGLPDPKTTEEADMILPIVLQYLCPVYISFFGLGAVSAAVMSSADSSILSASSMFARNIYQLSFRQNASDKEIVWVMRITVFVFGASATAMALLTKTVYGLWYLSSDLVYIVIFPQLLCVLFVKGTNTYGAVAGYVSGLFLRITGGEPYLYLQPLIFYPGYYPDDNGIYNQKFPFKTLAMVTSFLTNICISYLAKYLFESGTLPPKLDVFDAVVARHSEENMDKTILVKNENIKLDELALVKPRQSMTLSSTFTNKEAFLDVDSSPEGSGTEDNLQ

[6] = test system: Vero; experiment: viability of Vero cells under compound – cytotoxicity control for flavivirus capping enzyme inhibitors (AID 588742); format: functional; settings: Chlorocebus sabaeus
[7] = biological target: T3, Protein RecA (Mycobacterium tuberculosis, UniProt P9WHJ3); experiment: Fluorescence Cell-Free Homogeneous Dose Retest to Identify Inhibitors of RecA-Intein Splicing Activity. [Related pubchem assays (depositor defined):AID2097, AID2223, AID489010, AID492950]; format: functional
T3 sequence (P9WHJ3 whole entry): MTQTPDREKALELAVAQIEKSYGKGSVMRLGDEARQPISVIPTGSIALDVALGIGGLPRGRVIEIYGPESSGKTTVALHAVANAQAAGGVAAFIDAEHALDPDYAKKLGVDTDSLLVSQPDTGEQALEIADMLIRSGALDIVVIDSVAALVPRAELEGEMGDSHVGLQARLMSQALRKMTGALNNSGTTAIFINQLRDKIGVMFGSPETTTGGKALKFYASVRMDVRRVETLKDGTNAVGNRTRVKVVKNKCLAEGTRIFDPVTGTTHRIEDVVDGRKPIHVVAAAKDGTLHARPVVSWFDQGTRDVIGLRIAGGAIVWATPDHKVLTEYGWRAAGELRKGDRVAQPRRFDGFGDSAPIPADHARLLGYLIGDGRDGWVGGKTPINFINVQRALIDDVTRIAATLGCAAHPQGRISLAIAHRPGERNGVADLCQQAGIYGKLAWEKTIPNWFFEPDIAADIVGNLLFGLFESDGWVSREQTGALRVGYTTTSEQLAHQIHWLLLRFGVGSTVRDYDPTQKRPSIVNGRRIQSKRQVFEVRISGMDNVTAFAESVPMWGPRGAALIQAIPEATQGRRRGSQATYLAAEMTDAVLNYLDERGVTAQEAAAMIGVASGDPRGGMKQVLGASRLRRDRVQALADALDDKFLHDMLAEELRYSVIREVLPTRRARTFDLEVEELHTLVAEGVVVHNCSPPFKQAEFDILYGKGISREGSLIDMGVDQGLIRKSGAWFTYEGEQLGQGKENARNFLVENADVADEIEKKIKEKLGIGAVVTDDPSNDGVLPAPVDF

[8] = biological target: Genome polyprotein (dengue virus type 2, UniProt P29990); experiment: flavivirus cap methylation enzyme inhibition – biochemical, confirmation dose response, primary screen (AID 588689); format: functional
Sequence of Genome polyprotein (P29990 2492-3391 limits assumed): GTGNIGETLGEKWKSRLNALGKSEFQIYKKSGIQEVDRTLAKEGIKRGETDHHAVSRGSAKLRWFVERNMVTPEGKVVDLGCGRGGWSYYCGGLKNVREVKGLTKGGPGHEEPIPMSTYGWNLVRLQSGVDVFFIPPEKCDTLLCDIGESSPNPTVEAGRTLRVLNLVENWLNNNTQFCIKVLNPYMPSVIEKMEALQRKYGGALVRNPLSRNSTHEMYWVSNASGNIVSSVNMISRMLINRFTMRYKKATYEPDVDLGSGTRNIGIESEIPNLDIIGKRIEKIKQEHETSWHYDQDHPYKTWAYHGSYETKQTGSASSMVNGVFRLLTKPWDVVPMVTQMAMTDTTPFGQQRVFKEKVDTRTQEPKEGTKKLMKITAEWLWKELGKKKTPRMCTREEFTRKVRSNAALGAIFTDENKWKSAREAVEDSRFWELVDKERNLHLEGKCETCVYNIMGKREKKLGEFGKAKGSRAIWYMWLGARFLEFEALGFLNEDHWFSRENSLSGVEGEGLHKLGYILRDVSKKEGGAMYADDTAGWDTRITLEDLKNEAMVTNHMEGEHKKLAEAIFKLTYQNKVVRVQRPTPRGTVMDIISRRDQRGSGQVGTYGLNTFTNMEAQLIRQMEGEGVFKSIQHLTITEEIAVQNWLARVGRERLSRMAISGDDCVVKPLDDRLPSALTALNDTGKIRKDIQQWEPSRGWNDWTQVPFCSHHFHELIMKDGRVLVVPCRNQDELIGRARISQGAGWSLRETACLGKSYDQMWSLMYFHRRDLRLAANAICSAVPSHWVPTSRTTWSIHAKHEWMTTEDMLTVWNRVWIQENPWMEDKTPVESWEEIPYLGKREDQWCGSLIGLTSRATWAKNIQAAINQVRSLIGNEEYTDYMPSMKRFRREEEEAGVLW

[9] = reduction of Shn3 3'UTR-driven luciferase in osteoblasts – cell-based, Clone20 osteoblasts, firefly luciferase, cherry-picked, dose response (AID 624132); format: functional;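 further: firefly luciferase luminescence from reporter carrying the Shn3 3'UTR in osteoblasts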
[10] = non-specific 3'UTR reporter inhibition in Clone20-Shn3RL – cell-based, Renilla luciferase, cherry-picked, counter-screen for Shn3 inhibitor project, dose response (AID 624133); format: functional
[11] = biological target: ATP-binding cassette sub-family B member 6 (Homo sapiens, UniProt Q9NP58); experiment: ABCB6 transporter inhibitors, porphyrin accumulation, dose response, flow cytometry, K562-ABCB6 cells, cherry pick 02 (AID 624487); format: functional; settings: read-out: EC50_MICROM
Sequence of ATP-binding cassette sub-family B member 6 (Q9NP58 whole entry): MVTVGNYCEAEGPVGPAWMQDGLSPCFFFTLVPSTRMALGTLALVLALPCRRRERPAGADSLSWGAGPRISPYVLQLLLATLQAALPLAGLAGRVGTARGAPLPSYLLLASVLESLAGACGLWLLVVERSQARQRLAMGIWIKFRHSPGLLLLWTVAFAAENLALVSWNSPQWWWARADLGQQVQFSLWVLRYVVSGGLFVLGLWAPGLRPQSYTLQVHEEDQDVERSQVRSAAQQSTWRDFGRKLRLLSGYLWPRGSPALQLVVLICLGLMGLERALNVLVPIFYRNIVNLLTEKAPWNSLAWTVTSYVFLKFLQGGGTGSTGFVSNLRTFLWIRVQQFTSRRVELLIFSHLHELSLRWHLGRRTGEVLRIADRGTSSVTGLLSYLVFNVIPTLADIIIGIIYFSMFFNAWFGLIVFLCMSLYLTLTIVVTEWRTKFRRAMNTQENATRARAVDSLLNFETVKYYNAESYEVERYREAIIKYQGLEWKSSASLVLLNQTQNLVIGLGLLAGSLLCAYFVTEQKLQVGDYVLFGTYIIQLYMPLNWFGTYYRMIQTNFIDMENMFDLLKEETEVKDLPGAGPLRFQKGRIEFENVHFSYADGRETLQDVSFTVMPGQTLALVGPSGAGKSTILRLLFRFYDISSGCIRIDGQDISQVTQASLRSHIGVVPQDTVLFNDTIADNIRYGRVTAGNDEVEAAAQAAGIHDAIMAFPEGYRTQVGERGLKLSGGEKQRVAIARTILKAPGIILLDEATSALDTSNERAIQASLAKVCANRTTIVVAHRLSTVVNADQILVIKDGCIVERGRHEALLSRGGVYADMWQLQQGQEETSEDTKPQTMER

[12] = test system: BJ; experiment: BJ-TERT fibroblast viability loss – cell-based, RAS-independent, luminescence, dose response (AID 1933); format: functional; settings: Homo sapiens
[13] = biological target: T4, Heat shock factor protein 1 (Mus musculus, UniProt P38532); experiment: decrease of HSF1-responsive luciferase luminescence – cell-based, NIH3T3, dose retest, confirmation (AID 2382); format: functional;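 further: NIH3T3 fibroblasts with HSF1-driven luciferase reporter stressed by proteasome inhibitor MG132; luminescence from HSF1-driven luciferase expression after 8 hours of MG132 stress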
T4 sequence (P38532 whole entry): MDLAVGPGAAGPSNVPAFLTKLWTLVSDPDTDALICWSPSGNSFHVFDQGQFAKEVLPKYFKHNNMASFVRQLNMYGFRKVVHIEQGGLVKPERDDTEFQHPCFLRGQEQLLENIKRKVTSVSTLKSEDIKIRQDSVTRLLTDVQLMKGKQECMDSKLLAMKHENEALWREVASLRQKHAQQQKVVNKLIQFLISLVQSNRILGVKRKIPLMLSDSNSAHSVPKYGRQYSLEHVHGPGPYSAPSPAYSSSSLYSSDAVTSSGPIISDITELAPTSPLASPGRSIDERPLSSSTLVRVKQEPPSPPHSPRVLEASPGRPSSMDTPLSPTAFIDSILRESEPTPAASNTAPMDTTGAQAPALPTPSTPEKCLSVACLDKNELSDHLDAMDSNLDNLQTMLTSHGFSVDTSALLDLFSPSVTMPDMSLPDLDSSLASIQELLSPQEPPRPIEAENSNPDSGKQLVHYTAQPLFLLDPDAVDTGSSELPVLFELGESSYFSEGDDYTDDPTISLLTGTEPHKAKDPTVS

[14] = test system: BJ; experiment: cells; format: functional, cell-based; settings: Homo sapiens
[15] = biological target: Mothers against decapentaplegic homolog 3 (Homo sapiens, UniProt P84022); experiment: inhibitors of SMAD-driven TGF-beta signaling – dose response (AID 715); format: functional
Sequence of Mothers against decapentaplegic homolog 3 (P84022 whole entry): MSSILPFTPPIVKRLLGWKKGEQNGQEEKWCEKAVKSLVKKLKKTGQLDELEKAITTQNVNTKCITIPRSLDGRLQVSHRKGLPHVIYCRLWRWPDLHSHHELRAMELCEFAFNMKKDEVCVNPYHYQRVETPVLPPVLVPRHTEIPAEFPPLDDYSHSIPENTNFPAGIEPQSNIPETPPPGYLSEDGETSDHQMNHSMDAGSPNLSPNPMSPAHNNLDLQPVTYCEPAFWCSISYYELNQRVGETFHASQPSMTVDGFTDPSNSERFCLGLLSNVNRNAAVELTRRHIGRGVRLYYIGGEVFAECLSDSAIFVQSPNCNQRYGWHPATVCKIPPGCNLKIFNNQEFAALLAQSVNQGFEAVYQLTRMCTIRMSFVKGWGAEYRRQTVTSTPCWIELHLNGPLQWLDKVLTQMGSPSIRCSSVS

[16] = viability of PTEN-deleted HCT116 cells – cell-based, HCT116 PTEN knockout, dose response (AID 1047); format: functional;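 further: HCT116 colon tumor cells with PTEN knocked out; cells exposed to compound for 60 hours before readout; potency for loss of cell viability measured by luminescence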
[17] = viability of HCT116 lacking mutant beta-catenin – cell-based, human colon tumor, dose response (AID 1045); format: functional;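 further: HCT116 colon tumor cells with beta catenin knocked out; cells exposed to compound for 60 hours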
[18] = test system: BJ; experiment: BJ-TERT-LT-ST fibroblast viability loss – cell-based, RAS-independent, luminescence, dose response (AID 1935); format: functional; settings: Homo sapiens;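 further: BJ fibroblasts immortalized with TERT plus LT and ST oncogenes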
[19] = DRD fibroblast viability loss – cell-based, non-viral oncogenic, luminescence, dose response (AID 1934); format: functional; settings: Homo sapiens
[20] = biological target: T5, Apoptotic protease-activating factor 1 (Homo sapiens, UniProt O14727); format: functional
T5 sequence (O14727 whole entry): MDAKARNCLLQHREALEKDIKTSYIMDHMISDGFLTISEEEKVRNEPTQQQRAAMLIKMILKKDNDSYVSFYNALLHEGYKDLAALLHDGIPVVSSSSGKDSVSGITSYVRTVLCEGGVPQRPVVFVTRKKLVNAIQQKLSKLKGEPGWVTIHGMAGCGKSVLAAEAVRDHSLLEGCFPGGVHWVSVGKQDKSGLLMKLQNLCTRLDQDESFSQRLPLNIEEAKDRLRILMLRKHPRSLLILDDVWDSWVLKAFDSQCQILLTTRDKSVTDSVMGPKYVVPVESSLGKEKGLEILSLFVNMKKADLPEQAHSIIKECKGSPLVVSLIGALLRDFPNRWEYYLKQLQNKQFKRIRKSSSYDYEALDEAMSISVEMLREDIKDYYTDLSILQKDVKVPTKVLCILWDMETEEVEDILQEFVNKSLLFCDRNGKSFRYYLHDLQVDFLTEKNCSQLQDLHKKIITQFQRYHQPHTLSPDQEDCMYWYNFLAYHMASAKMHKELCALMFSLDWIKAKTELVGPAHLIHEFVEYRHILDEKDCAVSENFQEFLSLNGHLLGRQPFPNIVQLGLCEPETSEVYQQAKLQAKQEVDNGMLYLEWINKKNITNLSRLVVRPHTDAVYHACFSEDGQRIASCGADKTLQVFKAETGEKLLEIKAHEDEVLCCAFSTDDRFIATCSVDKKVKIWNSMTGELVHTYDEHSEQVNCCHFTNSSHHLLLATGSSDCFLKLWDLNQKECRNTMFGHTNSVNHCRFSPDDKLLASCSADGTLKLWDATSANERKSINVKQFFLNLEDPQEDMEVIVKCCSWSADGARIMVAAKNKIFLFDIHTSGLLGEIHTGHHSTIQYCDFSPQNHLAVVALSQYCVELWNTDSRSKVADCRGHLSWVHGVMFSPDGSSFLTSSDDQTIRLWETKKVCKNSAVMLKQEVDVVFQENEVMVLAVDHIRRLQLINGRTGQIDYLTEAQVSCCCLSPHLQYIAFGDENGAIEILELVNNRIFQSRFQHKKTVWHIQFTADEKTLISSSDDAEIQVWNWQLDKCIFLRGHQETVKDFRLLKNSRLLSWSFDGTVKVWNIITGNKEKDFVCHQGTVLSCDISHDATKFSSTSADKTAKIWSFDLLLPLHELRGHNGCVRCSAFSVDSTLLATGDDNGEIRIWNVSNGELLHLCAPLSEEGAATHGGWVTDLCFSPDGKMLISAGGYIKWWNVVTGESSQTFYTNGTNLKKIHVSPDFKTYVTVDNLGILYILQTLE

[21] = test system: BJ; experiment: growth inhibition of engineered Ras-driven BJ cells – cell-based, alamar blue fluorescence, cherrypicked samples, dose response (AID 2631); format: functional; settings: Homo sapiens;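 further: confirmatory dose-response assay in RAS-dependent BJ fibroblasts engineered with TERT, LT and ST, with cytotoxicity read by fluorescence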
[22] = test system: INS1; experiment: INS-1E survival protection against cytokine death – cell-based, luminescence, retest, dose response (AID 449756); format: functional; settings: Rattus norvegicus;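 further: cell death triggered by IL-1 beta plus TNF-alpha plus IFN-gamma mixture; protective hits raise ATP signal compared with cytokine alone wells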

Sequence of 5-hydroxytryptamine receptor 1E (P28566 whole entry): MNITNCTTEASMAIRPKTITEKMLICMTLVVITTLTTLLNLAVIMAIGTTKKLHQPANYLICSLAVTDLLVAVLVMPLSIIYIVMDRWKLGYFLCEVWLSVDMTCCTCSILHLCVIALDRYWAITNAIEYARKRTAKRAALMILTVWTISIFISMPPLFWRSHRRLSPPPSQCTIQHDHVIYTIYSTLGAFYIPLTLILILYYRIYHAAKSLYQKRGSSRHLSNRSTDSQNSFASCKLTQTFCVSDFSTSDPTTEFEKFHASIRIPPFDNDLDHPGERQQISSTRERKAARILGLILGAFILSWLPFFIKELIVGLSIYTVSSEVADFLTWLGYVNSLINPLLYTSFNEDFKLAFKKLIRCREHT

In the case of `Cc1cc(C(=O)OC(C(=O)Nc2ccc(C)c(Cl)c2)c2ccccc2)c(C)o1` (configuration not stated), the IC50 [1] is reported as 13400 nM (not active) and the IC50 [2] is reported as 11800 nM (not active).

For `CC(C)c1nnc(NC(=O)c2nc(S(=O)(=O)Cc3ccccc3)ncc2Cl)s1`, the EC50 [3] was 6200 nM (active), the AC50 [4] was 48000 nM (active) and the IC50 [5] was 4470 nM (active). For the same compound, the CC50 [6] was 25900 nM (active), the EC50 [7] was 8120 nM (active) and the IC50 [8] was > 100000 nM (active). The AC50 [9] was 876 nM (active), the AC50 [10] was 6320 nM (active) and the EC50 [11] was 36800 nM (active).

With `O=C1C(=O)c2ccc(-c3ccccc3)cc2-c2ccccc21` the EC50 [12] was 1020 nM (active), the EC50 [13] was 1750 nM (active) and the EC50 [14] was 2750 nM (inconclusive). For the same compound, the IC50 [15] was 2000 nM (active), the EC50 [16] was 1160 nM (active) and the EC50 [17] was 1210 nM (active). The EC50 [18] was 1230 nM (inconclusive), the EC50 [19] was 2210 nM (active) and the IC50 [20] was 316 nM (active). For the same compound, the EC50 [21] was 1600 nM (active) and the AC50 [22] was 1040 nM (active).
